Assay results: the METLIN SMRT retention time set (Domingo-Almenara et al. 2019)

Experiment: gradient 5% acetonitrile 3 min, to 50% in 2 min, to 85% in 15 min, held 3 min, 100 µL/min
Conditions: column: Zorbax Extend-C18 2.1 x 50 mm; eluents: water / acetonitrile, 0.1% formic acid
In short: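 Retention times of pure standards were taken from adduct peaks that were selected by computer and manually inspected. Over 3 months, mixtures of ~100 molecules were run by HPLC–quadrupole time-of-flight mass spectrometry in positive and negative ionization mode. The Zorbax Extend-C18 column (2.1 × 50 mm, 1.8 μm) ran at 100 μL/min in water and acetonitrile, each containing 0.1% formic acid, with 40 μL dead volume and 900 μL dwell volume.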

RP-LC retention time	SMILES
1180 s	CCN1CCN(S(=O)(=O)c2cc(-c3nnc(-c4ccc(OC)c(OC)c4)o3)ccc2C)CC1
646 s	CCOc1nc2ccccc2nc1N1CCCC(C(=O)N2CCN(C)CC2)C1 (stereo unspecified)
949 s	COc1ccc(-c2noc(Cc3nnc(-c4ccccc4)o3)n2)cc1OC
606 s	O=C(NCc1n[nH]c(=O)c2ccccc12)c1ccc([N+](=O)[O-])o1
602 s	COCC1CN(C2CCC2)CC12CCN(C(=O)c1cccs1)CC2 (stereo unspecified)
593 s	COc1ccccc1-c1cnn2c(Nc3ccc(NC(C)=O)cc3)cc(C)nc12
636 s	COCC1CN(S(=O)(=O)c2ccc(F)c(C)c2)CC12CCNCC2 (stereo unspecified)
759 s	COc1ccccc1-c1nc(C2CCN(C(=O)c3n[nH]c4c3CCCC4)CC2)no1
815 s	COC(=O)CNC(=O)N1c2ccccc2CC1c1nc(C2CC2)no1 (stereo unspecified)
848 s	Cc1cc(-c2nnc(C3CC3)o2)c(C)n1CC(=O)NCc1ccc(F)c(Cl)c1
689 s	O=C(Cc1ccsc1)N1CCC(c2nncn2-c2ccccc2)CC1
888 s	CC(C)Cn1c(=O)c(C(=O)NCCCc2ccccc2)nc2cccnc21
640 s	CCOC(=O)c1[nH]c(C)c(S(=O)(=O)N2CCN(c3ccccn3)CC2)c1C
1020 s	Cc1c(C(=O)NC(C)C)cnn1-c1ccc(-c2nc(C(C)(C)C)no2)cn1
856 s	Cc1nc(C2CN(S(=O)(=O)c3cccc(C(F)(F)F)c3)CC23CCOCC3)no1 (stereo unspecified)
870 s	C[C@@H](c1ncncc1F)[C@@](O)(Cn1cncn1)c1ccc(F)cc1F
804 s	CCCCOc1ccc(CNC(=O)C2CCN(Cc3cn(C)c4ccc(OC)cc34)CC2)cc1
1080 s	COc1cccc(C(=O)c2oc3ccccc3c2NC(=O)c2ccccc2[N+](=O)[O-])c1
551 s	Cc1ccn2cc(C(=O)NCCc3ccc(S(N)(=O)=O)cc3)nc2c1
661 s	CCOc1ccc(NC(=O)N(Cc2ccc3c(c2)OCO3)C2CCN(CC)CC2)cc1
738 s	COc1ccc(OC)c(NC(=O)Cc2csc3nc(-c4ccc(OC)c(OC)c4)cn23)c1
756 s	COCCCNC(=O)CN1c2ccc(F)cc2-c2ccccc2S1(=O)=O
772 s	CCC(C)NS(=O)(=O)c1ccc(-c2n[nH]c(C)c2C)o1 (stereo unspecified)
740 s	COc1ccc(C(=O)NC2CCN(c3cc(-c4ccc(F)cc4)[nH]n3)C2)c(OC)c1 (stereo unspecified)
583 s	COCC(=O)NC1CCC12CCN(Cc1ccc(C)o1)CC2 (stereo unspecified)
909 s	Cc1cccc(NC(=O)Cn2c(=O)nc(N3CCC(C)CC3)c3ccccc32)c1C
760 s	Cc1cc(C)cc(NC(=O)C2CCN(S(=O)(=O)c3cc(C(=O)N4CCOCC4)cs3)CC2)c1
746 s	Cc1ccccc1NC(=O)Cn1nc2cc(-c3ccccn3)nc(C)n2c1=O
666 s	CCCCN(C)C(=O)C1CCCCc2nnc(C(C)C)n21 (stereo unspecified)
568 s	Nc1nnc(CS(=O)(=O)c2ccccc2)o1

The remaining lines, values behind:

SMILES	RP-LC retention time
O=C(NCCc1csc(-c2ccccc2)n1)C1CCN(C(=O)c2ccc(F)c(Cl)c2)CC1	1020 s
COc1ccc(S(=O)(=O)N2CC3CN(C(=O)c4ccncc4)CC(C2)O3)cc1	621 s
CN(C)CC1CN(C(=O)COc2ccccc2)CC12CCOCC2 (stereo unspecified)	599 s
O=C(Nc1ccccc1)N1CCC(N2CC(OCC3CC3)C23CCOCC3)CC1 (stereo unspecified)	635 s
Cc1ccc2c(C(=O)N3CCCCC3)cc(NC(=O)C3CCC3)cc2n1	632 s
CSc1ccc(CNC(=O)c2ccc3ccnc(N4CCN(C(=O)c5ccco5)CC4)c3c2)cc1	732 s
Cc1sc(C)c(S(=O)(=O)N2CCCc3ccccc32)c1-c1cc(C(F)(F)F)on1	1290 s
Cc1cc(C)cc(Oc2nccn3c(=O)n(CC(=O)Nc4cccc(Cl)c4C)nc23)c1	992 s
COCCNC(=O)N1CCCN(C2=NS(=O)(=O)C(c3ccc(C)c(C)c3)=C2C)CC1	738 s
CC1CCN(S(=O)(=O)c2ccc3c(c2)CCCC(=O)N3CC(=O)N2CCc3ccccc32)CC1	1030 s
Cc1ccc(NC(=O)NC2CCN(c3ccc(F)cc3)C2=O)cc1F (stereo unspecified)	886 s
CC(NC(=O)CCC(=O)N1CCc2c(c(C(=O)N3CCOCC3)nn2C)C1)c1ccccc1 (stereo unspecified)	632 s
CCn1cc(S(=O)(=O)N2CCC(Cc3nc(-c4cccnc4)n[nH]3)C2)cn1 (stereo unspecified)	592 s
CCC(C)NC(=O)N1CC(Oc2ccc(-c3nc(C)no3)cc2)C1 (stereo unspecified)	873 s
O=c1c2scc(-c3ccc(F)cc3)c2ncn1CCOc1ccccc1	1070 s
CCc1nc(-c2cc(S(=O)(=O)N3CCC(C(=O)NCc4ccc(C)o4)CC3)c(C)s2)no1	969 s
COc1ccc(-c2nc(-c3ccc4oc(C)nc4c3)no2)c(OC)c1	976 s
O=C(Nc1ccccc1Br)N1CCc2nc(-c3ccc(Cl)cc3)ncc2C1	1130 s

SMILES	RP-LC retention time
O=C(NCc1cccnc1)c1ccc(-c2ccc(N3CCSCC3)nc2)cc1	582 s
COc1ccc(NS(=O)(=O)c2ccc3c(c2)CCCC(=O)N3)cc1Cl	738 s
O=C(CN1CCC(c2nc(-c3ccccc3)no2)CC1)NC1CCCCC1	700 s
COCCNC(=O)C1CCN(S(=O)(=O)c2ccc3c(c2)NC(=O)CO3)CC1	862 s
CNC(=O)N1CCCC(c2cccc(C(=O)N3CCN(c4ccccc4F)CC3)c2)C1 (stereo unspecified)	834 s
Cc1ccc(NC(=O)Cn2cnc3c(c2=O)CCCC3)cc1	710 s
COc1ccc(-c2nc(N(Cc3ccco3)C3CCCCC3)c3ccccc3n2)cc1	1030 s
O=C(NCC1CCN(C(=O)Oc2ccccc2)CC1)c1ccsc1	739 s
CC(=O)Nc1ccc(-c2noc(C3CCN(C(=O)C4CC4)CC3)n2)cc1	689 s
CCn1ccc2sc(C)c(C(=O)N3CCCCCC3)c2c1=O	760 s
COCCNC(=O)[C@@H]1[C@H](c2cc(OC)c(OC)c(OC)c2)c2cc3c(cc2[C@H](O)[C@H]1CO)OCO3	623 s
O=C(NC1CCCC1)c1c[nH]c2ncccc12	625 s
CC(C)c1cccc(Nc2nc3ccncc3n(Cc3ccccc3)c2=O)c1	911 s
COc1ccc(-c2nnc(-c3ccc(C)c(S(=O)(=O)N4CCCC4)c3)o2)cc1	1030 s
CCN1CCn2cc(S(=O)(=O)Nc3ccc(C)cc3F)cc2C1=O	725 s
CC(=O)Nc1nsc(N2CCC(C(=O)N3CCN(c4ccc(C)cc4)CC3)CC2)n1	675 s
COc1ccc(OC)c(NC2=NS(=O)(=O)C(c3ccc(F)cc3)=C2C)c1	880 s
CCc1noc(NC(C)=O)c1-c1ccc(OC)c(S(=O)(=O)Nc2ccc(S(N)(=O)=O)cc2)c1	655 s
